Measurements published in US4024277A, “Phosphoro-aminosulfenyl derivatives of benzofuran carbamates” (priority 1975, dated 1977).

Experiments:
[1] = tested on: large milkweed bug; assay: Initial insecticidal activity, milkweed bug; format: in vivo, Oncopeltus fasciatus (Dallas); conditions: Oncopeltus fasciatus, 48-hour exposure, read-out: % Kill, Milkweed Bug
Excerpt: (§1) a. Initial Insecticidal Activity
(§2) In this test, a candidate insecticide, in solution, is applied to either infested or uninfested plants or containers by spraying or dipping. (The preferred test procedure varies with insect species. The dipping method is better than the spraying method, and vice versa, for certain species of insects. Also some species are better adapted to the test by infesting after the chemical treatment rather than before.) Once the tests have been established, a 48-hour exposure period is observed before reading the tests. Insect species included in these tests are Mexican bean beetle (Epilachna varivestis Mulsant), pea aphid [Acyrthosiphon pisum (Harris)], southern armyworm [Spodoptera eridania (Cramer)], twospotted spider mite (Tetranychus urticae Koch), large milkweed bug [Oncopeltus fasciatus (Dallas)], plum curculio [Conotrachelus nenuphar (Herbst)], confused flour beetle (Tribolium confusum Jacquelin duVal) and granary weevil [Sitophilus granarius (Linnaeus)]. Test results are set forth in Table I. A control sample, comprising the solution without the candidate insecticide, is also included.

[2] = tested on: plum curculio; assay: Initial insecticidal activity, plum curculio; format: in vivo, Conotrachelus nenuphar (Herbst); conditions: Conotrachelus nenuphar, 48-hour exposure, read-out: % Kill, Plum Curculio
Excerpt: as §1, §2

[3] = tested on: confused flour beetle; assay: Initial insecticidal activity, confused flour beetle; format: in vivo, Tribolium confusum Jacquelin duVal; conditions: Tribolium confusum, 48-hour exposure, read-out: % Kill, Confused Flour Beetle
Excerpt: as §1, §2

[4] = tested on: Mexican bean beetle; assay: Initial insecticidal activity, Mexican bean beetle; format: in vivo, Epilachna varivestis Mulsant; conditions: Epilachna varivestis, 48-hour exposure, read-out: % Kill, Mexican Bean Beetle
Excerpt: as §1, §2

[5] = tested on: pea aphid; assay: Initial insecticidal activity, pea aphid; format: in vivo, Acyrthosiphon pisum (Harris); conditions: Acyrthosiphon pisum, 48-hour exposure, read-out: % Kill, Pea Aphid
Excerpt: as §1, §2

[6] = tested on: southern armyworm; assay: Initial insecticidal activity, southern armyworm; format: in vivo, Spodoptera eridania (Cramer); conditions: Spodoptera eridania, 48-hour exposure, read-out: % Kill, Southern Armyworm
Excerpt: as §1, §2

[7] = tested on: twospotted spider mite; assay: Initial insecticidal activity, twospotted spider mite; format: in vivo, Tetranychus urticae Koch; conditions: Tetranychus urticae, 48-hour exposure, read-out: % Kill, Twospotted Spider Mite
Excerpt: as §1, §2

[8] = tested on: large milkweed bug; assay: Seven-day residual insecticidal activity, milkweed bug; format: in vivo, Oncopeltus fasciatus (Dallas); conditions: Oncopeltus fasciatus, 48-hour exposure, read-out: % Kill, Milkweed Bug
Excerpt: (§3) b. Seven-Day Residual Insecticidal Activity
(§4) In this test, a candidate insecticide, in solution, is applied to uninfested plants or containers by dipping or spraying. A seven-day holding period is necessary before infestation. A 48-hour exposure period is observed before evaluation of the tests. The insect species used in this type of test are the same as those listed under initial activity.

[9] = tested on: plum curculio; assay: Seven-day residual insecticidal activity, plum curculio; format: in vivo, Conotrachelus nenuphar (Herbst); conditions: Conotrachelus nenuphar, 48-hour exposure, read-out: % Kill, Plum Curculio
Excerpt: as §3, §4

[10] = tested on: confused flour beetle; assay: Seven-day residual insecticidal activity, confused flour beetle; format: in vivo, Tribolium confusum Jacquelin duVal; conditions: Tribolium confusum, 48-hour exposure, read-out: % Kill, Confused Flour Beetle
Excerpt: as §3, §4

[11] = tested on: Mexican bean beetle; assay: Seven-day residual insecticidal activity, Mexican bean beetle; format: in vivo, Epilachna varivestis Mulsant; conditions: Epilachna varivestis, 48-hour exposure, read-out: % Kill, Mexican Bean Beetle
Excerpt: as §3, §4

[12] = tested on: pea aphid; assay: Seven-day residual insecticidal activity, pea aphid; format: in vivo, Acyrthosiphon pisum (Harris); conditions: Acyrthosiphon pisum, 48-hour exposure, read-out: % Kill, Pea Aphid
Excerpt: as §3, §4

[13] = tested on: southern armyworm; assay: Seven-day residual insecticidal activity, southern armyworm; format: in vivo, Spodoptera eridania (Cramer); conditions: Spodoptera eridania, 48-hour exposure, read-out: % Kill, Southern Armyworm
Excerpt: as §3, §4

[14] = tested on: twospotted spider mite; assay: Seven-day residual insecticidal activity, twospotted spider mite; format: in vivo, Tetranychus urticae Koch; conditions: Tetranychus urticae, 48-hour exposure, read-out: % Kill, Twospotted Spider Mite
Excerpt: as §3, §4

[15] = tested on: Mexican bean beetle; assay: Systemic insecticidal activity (soil/water), Mexican bean beetle; format: in vivo, Epilachna varivestis Mulsant; conditions: Epilachna varivestis, 48-hour exposure, read-out: % Kill, Mexican Bean Beetle
Procedure: (§5) c. Systemic Insecticidal Acitivity (Soil/Water)
(§6) In this test, a candidate insecticide, in solution, is added to the soil of either uninfested pinto bean seedlings (Phaseolus vulgaris) or uninfested broad bean seedlings (Vicia faba var. Windsor). The plant species used depend on the insect species in the test. Usually, a 72-hour translocation period before infestation is required, followed by a 48-hour exposure period, before evaluation of the tests. The insect species used in the systemic tests are Mexican bean beetle, southern armyworm, pea aphid, and twospotted spider mite.

[16] = tested on: pea aphid; assay: Systemic insecticidal activity (soil/water), pea aphid; format: in vivo, Acyrthosiphon pisum (Harris); conditions: Acyrthosiphon pisum, 48-hour exposure, read-out: % Kill, Pea Aphid
Procedure: as §5, §6

[17] = tested on: southern armyworm; assay: Systemic insecticidal activity (soil/water), southern armyworm; format: in vivo, Spodoptera eridania (Cramer); conditions: Spodoptera eridania, 48-hour exposure, read-out: % Kill, Southern Armyworm
Procedure: as §5, §6

[18] = tested on: twospotted spider mite; assay: Systemic insecticidal activity (soil/water), twospotted spider mite; format: in vivo, Tetranychus urticae Koch; conditions: Tetranychus urticae, 48-hour exposure, read-out: % Kill, Twospotted Spider Mite
Procedure: as §5, §6

[19] = tested on: twospotted spider mite; assay: Ovicidal activity against the twospotted spider mite; format: in vivo, Tetranychus urticae Koch; conditions: Tetranychus urticae, eggs, 7 to 10 days, read-out: % Kill (ovicidal)
Procedure: d. Ovicidal Activity Against the Twospotted Spider Mite
In this test, Pinto bean seedlings are infested with female twospotted spider mites; about 3-4 hours are allowed for egg deposition. Plants are then dipped in TEPP (tetraethylpyrophosphate-commercial emulsifiable concentrate (EC)) solution containing 936 ppm of active ingredient. TEPP kills motile forms on the leaf and promptly degrades without effecting the egg stage. Two to three hours after TEPP treatment the plants are again dipped -- this time into a candidate insecticide solution. The test plants are maintained for 7 to 10 days. Termination of exposure is determined by the time required to attain complete hatch in the untreated check.

[20] = Mammalian toxicity, 14-day LD50 in rats; conditions: rat, in vivo, Wistar derived albino rats, method of Miller and Tainter
Excerpt: The compounds of this invention are characterized by advantageous mammalian toxicity values when compared with values for related compounds. This is shown by comparative values obtained with Wistar derived albino rats in 14-day tests. The animals were fed, housed and watered in accordance with standard laboratory procedures. The 14-day LD50 determination was estimated in accord with the method of Miller and Tainter (Experimental Biology and Medicine, 57, pp. 261-264, 1944).

[21] = tested on: beetles, true bugs, aphids and acarids; conditions: U.S. Pat. No. 3,474,171; cited from earlier work

CCCN(SN(C)C(=O)Oc1cccc2c1OC(C)(C)C2)P(=O)(OCC)OCC [4(c), 2,3-dihydro-2,2-dimethyl-7-benzofuranyl [(N-diethoxyphosphinyl) (N-n-propyl)aminosulfenyl][methyl]carbamate]
mortality at 39 ppm [1]: 90% | mortality at 156 ppm [1]: 100% | mortality at 1250 ppm [1]: 100% | mortality at 39 ppm [2]: 0% | mortality at 156 ppm [2]: 50% | mortality at 1250 ppm [2]: 10% | mortality at 39 ppm [3]: 0% | mortality at 156 ppm [3]: 8% | mortality at 1250 ppm [3]: 65% | mortality at 39 ppm [4]: 86% | mortality at 156 ppm [4]: 100% | mortality at 1250 ppm [4]: 95% | mortality at 39 ppm [5]: 33% | mortality at 156 ppm [5]: 100% | mortality at 1250 ppm [5]: 100% | mortality at 39 ppm [6]: 0% | mortality at 156 ppm [6]: 29% | mortality at 1250 ppm [6]: 100% | mortality at 39 ppm [7]: 8% | mortality at 156 ppm [7]: 37% | mortality at 1250 ppm [7]: 100% | mortality at 39 ppm [8]: 75% | mortality at 156 ppm [8]: 95% | mortality at 1250 ppm [8]: 100% | mortality at 39 ppm [9]: 0% | mortality at 156 ppm [9]: 0% | mortality at 1250 ppm [9]: 19% | mortality at 39 ppm [10]: 0% | mortality at 156 ppm [10]: 0% | mortality at 1250 ppm [10]: 0% | mortality at 39 ppm [11]: 27% | mortality at 156 ppm [11]: 62% | mortality at 1250 ppm [11]: 100% | mortality at 39 ppm [12]: 0% | mortality at 156 ppm [12]: 0% | mortality at 1250 ppm [12]: 100% | mortality at 39 ppm ([13]; 39 ppm): 0% | mortality at 156 ppm [13]: 5% | mortality at 1250 ppm [13]: 60% | mortality at 39 ppm ([14]; 39 ppm): 0% | mortality at 156 ppm [14]: 0% | mortality at 1250 ppm [14]: 2% | mortality at 10 ppm [15]: 7% | mortality at 39 ppm [15]: 65% | mortality at 156 ppm [15]: 94% | mortality at 10 ppm [16]: 0% | mortality at 39 ppm [16]: 93% | mortality at 156 ppm [16]: 100% | mortality at 10 ppm ([17]; 10 ppm): 0% | mortality at 39 ppm [17]: 0% | mortality at 156 ppm [17]: 42% | mortality at 10 ppm ([18]; 10 ppm): 0% | mortality at 39 ppm [18]: 0% | mortality at 156 ppm [18]: 7% | mortality at 156 ppm [19]: 0% | mortality at 1250 ppm [19]: 66%

CCOP(=O)(OCC)N(CCc1ccccc1)SN(C)C(=O)Oc1cccc2c1OC(C)(C)C2 [9(c), 2,3-Dihydro-2,2-dimethyl-7-benzofuranyl [(N-diethoxyphosphinyl)(N-2-phenylethyl)aminosulfenyl][methyl-carbamate]]
mortality at 39 ppm [1]: 6% | mortality at 156 ppm [1]: 100% | mortality at 1250 ppm [1]: 100% | mortality at 39 ppm [2]: 0% | mortality at 156 ppm [2]: 5% | mortality at 1250 ppm [2]: 94% | mortality at 39 ppm [3]: 0% | mortality at 156 ppm [3]: 3% | mortality at 1250 ppm [3]: 8% | mortality at 39 ppm [4]: 60% | mortality at 156 ppm [4]: 100% | mortality at 1250 ppm [4]: 100% | mortality at 39 ppm [5]: 0% | mortality at 156 ppm [5]: 0% | mortality at 1250 ppm [5]: 100% | mortality at 39 ppm [6]: 0% | mortality at 156 ppm [6]: 8% | mortality at 1250 ppm [6]: 79% | mortality at 39 ppm [7]: 3% | mortality at 156 ppm [7]: 6% | mortality at 1250 ppm [7]: 98% | mortality at 39 ppm [8]: 0% | mortality at 156 ppm [8]: 85% | mortality at 1250 ppm [8]: 100% | mortality at 39 ppm [9]: 0% | mortality at 156 ppm [9]: 0% | mortality at 1250 ppm [9]: 0% | mortality at 39 ppm [10]: 0% | mortality at 156 ppm [10]: 0% | mortality at 1250 ppm [10]: 12% | mortality at 39 ppm [11]: 8% | mortality at 156 ppm [11]: 100% | mortality at 1250 ppm [11]: 100% | mortality at 39 ppm [12]: 6% | mortality at 156 ppm [12]: 0% | mortality at 1250 ppm [12]: 0% | mortality at 156 ppm [13]: 0% | mortality at 1250 ppm [13]: 25% | mortality at 156 ppm [14]: 0% | mortality at 1250 ppm [14]: 0% | mortality at 5 ppm ([15]; 5 ppm): 0% | mortality at 10 ppm [15]: 0% | mortality at 39 ppm [15]: 0% | mortality at 156 ppm [15]: 65% | mortality at 5 ppm ([16]; 5 ppm): 0% | mortality at 10 ppm [16]: 0% | mortality at 39 ppm [16]: 0% | mortality at 156 ppm [16]: 100% | mortality at 39 ppm [17]: 0% | mortality at 156 ppm [17]: 21% | mortality at 312 ppm ([17]; 312 ppm): 80% | mortality at 39 ppm [18]: 0% | mortality at 156 ppm [18]: 0% | mortality at 312 ppm ([18]; 312 ppm): 2% | mortality at 156 ppm [19]: 0% | mortality at 1250 ppm [19]: 94%

CNC(=O)Oc1cccc2c1OC(C)(C)C2 [carbofuran, 2,3-dihydro-2,2-dimethyl-7-benzofuranyl methyl-carbamate, reference compound]
LD50 at 336 h [20]: 12.2 mg/kg | control of beetles, true bugs, aphids and acarids [21]: effective in control of beetles, true bugs, aphids and acarids
